Key:
[1] = test system: A2058 tumor metabolism; assay: ^18F-FDG microPET of RIT or chemotherapy treated melanoma-bearing mice; format: in vivo; conditions: re-imaged one week after initial PET scan; FIG. 5
Experimental: MicroPositron Emission Tomography (microPET) of RIT or chemotherapy treated melanoma-bearing mice. To understand the effects of RIT with melanin-binding mAbs and chemotherapy with DTIC on A2058 tumor metabolism, microPET was performed of mice treated with DTIC or with RIT. For this purpose 6-7 mm in diameter tumor-bearing mice were fasted for 3 hrs, then placed in an anesthesia chamber with 1.5% isoflurane-oxygen mixture. Anesthesia continued through the IV injection, during a 1 hr uptake and through the imaging portion of the procedure. Each mouse was placed on a heating pad before scanning to maintain normal body temperature. Mice were injected via tail-vein with 11.1 to 14.8 MBq (300 to 400 μCi) ^18F-FDG and 1 hr later imaged in an R4 microPET scanner manufactured by CTI Concorde. The Full Width at Half Maximum for the R4 is about 2.1 mm with a field of view of 120 mm and a depth of field of 78 mm. Images were acquired for 10 minutes with a lower level discrimination of 350 keV and upper level discrimination of 650 keV. The timing window was set to 6 nsec. All of the default settings were selected during the histogram process. […] Data corrected for dead time counting losses, arc correction, random coincidences and the measured uniformity of detector responses (i.e. normalized) but not corrected for attenuation or scatter. […]

[2] = test system: mouse melanoma models; conditions: 50 mg/kg/day×5 days; Fodstad et al. 1980; cited from earlier work
[3] = test system: A2058 human melanoma; assay: histology of A2058 tumors from DTIC-treated mice (melanin release); format: in vivo; conditions: 50 mg/kg IP for 5 days; H&E, iron stain, melanin bleach; FIG. 3
Experimental: Combination of chemotherapy and RIT. For combined chemotherapy with dacarbazine and RIT of A2058 melanoma-bearing nude mice, a preliminary experiment was performed which was aimed at determining the tolerability of dacarbazine by tumor-bearing mice and the ability of dacarbazine treatment to release some melanin from the melanoma cells. For this purpose 10 mg/mL dacarbazine in citrate buffer with pH ˜5.5 was prepared by dissolving 100 mg dacarbazine (Sigma) in 9.5 mL citrate buffer, pH 3.9 and 0.5 mL 0.1 M HCl. Five mice with A2058 tumors were treated for 5 days IP with 50 mg/kg dacarbazine (1.1 mg/mouse). Three days after completion of DTIC treatment, two mice were sacrificed, their tumors removed, fixed in ethanol/buffered formalin, cut into 5 μm slices and analyzed histologically for the presence of melanin by staining with hematoxylin and eosin (H&E), iron staining or by melanin bleach. The slides were viewed under 400× magnification in polarized light.

[4] = test system: A2058 human melanoma; assay: chemotherapy, RIT and combination of chemotherapy and RIT in A2058 melanoma-bearing mice; format: in vivo; conditions: FIG. 4A
Experimental: Animal model and therapy studies. All animal studies were carried out in accordance with the guidelines of the Institutes for Animal Studies at the Albert Einstein College of Medicine. For RIT studies, 6-12 week-old female nude mice were implanted subcutaneously with 8×10^6 A2058 human melanoma cells into the right flank and used for therapeutic experiments 12 days after tumor volumes were approximately 0.15 cm^3 (0.02-0.4 cm^3).
For the experiment comparing the efficacy of chemotherapy, RIT and combination of chemotherapy, and RIT in A2058 melanoma-bearing mice, mice were inoculated with A2058 melanoma cells, randomized into groups of five after tumor volumes reached 0.15 cm^3 (0.02-0.4 cm^3). On Day 0 the treatment of groups #1 and 2 with 50 mg/kg DTIC for 5 consecutive days IP was initiated. Mice in group #3 received a single IP injection of 1 mCi ^188Re-6D2 mAb on Day 0. Twenty-four hrs after completion of pre-treatment with DTIC (Day 6), mice in group #2 received single IP dose of 1 mCi ^188Re-6D2 mAb. Group #4 was given PBS IP on Day 0.
Statistical analysis. The Wilcoxon rank sum test was used to compare tumor sizes between different treatment groups in therapy studies. Differences were considered statistically significant when P values were <0.05.

[5] = test system: metastatic melanoma; conditions: patients with metastatic melanoma; Sun and Schuchter, 2001; cited from earlier work

CN(C)N=Nc1[nH]cnc1C(N)=O [DTIC, 5-(3,3-dimethyl-1-triazeno)imidazole-4-carboxamide]
^18F-FDG uptake in tumors [1]: became less diffuse and concentrated in the center of the tumor | tumor growth [2]: effectively slowed tumor growth | release of melanin from tumor cells (histology) [3]: releases some melanin from the cells | tumor growth from day 15 ([4]; compared with combined treatment or RIT alone, p=0.02): started to grow much faster | tumor growth up to Day 15 ([4]; early time points post-therapy, compared with RIT alone): more effective in impairing tumor growth than RIT alone | response rate [5]: 15% to 20%

Source: patent publication US20110300067A1, “METHODS FOR INCREASING EFFICACY OF RADIOIMMUNOTHERAPY OF MELANOMA” (priority 2008, published 2011)
